Source: PMC8752837, “Structural basis of BAK activation in mitochondrial apoptosis initiation” (Nature Communications, 2022)
Like-named read-outs stand apart in the source and are kept apart here. Marks after values point to notes of the source that are not given here.

Columns and labels:
Human BAK-∆TM-His6 (BAK) = molecular target: T1, Human BAK-∆TM-His6 (BAK) (Homo sapiens, UniProt Q16611); assay: Liposome permeabilization assay (ANTS/DPX dye release from LUVs): activation of WT BAK by BH3 peptides;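 as to AUC for Experiment-2 (Mean): traces normalized between buffer minimum and 3% CHAPS maximum fluorescence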;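 as to AUC for Experiment-3 (Mean): traces normalized between buffer minimum and 3% CHAPS maximum fluorescence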; format: biochemical; parameters: AUC for Experiment-2 (Mean) / AUC for Experiment-3 (Mean) / AUC for Experiment-1 (Mean):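 traces normalized between buffer minimum and 3% CHAPS maximum fluorescence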; details: for AUC for Experiment-1 (Mean) / AUC for Experiment-2 (Mean) / AUC for Experiment-3 (Mean): AUC 0-88 mins of liposome permeabilization; for AUC for Experiment-1 (Mean): Experiment-1, mean of N replicates; for AUC for Experiment-2 (Mean): Experiment-2, mean of N replicates; for AUC for Experiment-3 (Mean): Experiment-3, mean of N replicates; for EC50: Fig. 4e, AUC vs peptide dose (Suppl. Fig. 6b), n = 2 experiments each of n = 3 technical replicates, read-out: EC50 LP; for EC50 / direct BAK activation compared to WT BID BH3: 50 nM BAK; for direct BAK activation compared to WT BID BH3: liposome permeabilization, Fig. 4c, e
T1 construct: C-terminus truncated recombinant human BAK containing C-terminal 6× histidine tag (MEAS-BAK); made in house; host or cells: E. coli T7 Express pLac I/Y
T1 sequence (Q16611 1-186 limits assumed): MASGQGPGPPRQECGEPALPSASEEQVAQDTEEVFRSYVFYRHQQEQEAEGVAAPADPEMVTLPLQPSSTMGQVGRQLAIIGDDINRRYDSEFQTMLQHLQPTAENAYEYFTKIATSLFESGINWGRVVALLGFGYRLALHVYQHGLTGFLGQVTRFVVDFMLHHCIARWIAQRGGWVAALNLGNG
Method: We performed liposome permeabilization assays as previously described[43]–[46]. […] We mixed the lipid film in ANTS/DPX solution by vortexing and sonication (~15 min) followed by extrusion through polycarbonate membrane of 2 μm pore size (Avanti Polar lipids) to generate homogenous large unilamellar vesicles (LUVs). We separated LUVs from free ANTS/DPX by S500 size exclusion chromatography and stored them at 4 °C in the dark. We prepared peptide and protein dilutions in 96-well black flat bottom plates (Costar) kept on ice. […] We quantified liposome permabilization by integrating area under curve (AUC) of normalized traces based on the Simpson’s equation, and analyzed that data in Excel and GraphPad Prism. AUC measurements reflect the kinetic and extent of liposome permeabilization and provide quantitative means for comparison between different experimental conditions (e.g., BAK mutants with gross or partial variation in activity).

GST-BAK = molecular target: T2, GST-BAK (Homo sapiens, UniProt Q16611); assay: Competitive fluorescence polarization assay (displacement of BID BH3 SAHB-F); format: binding
T2 construct: made in house
T2 sequence (Q16611 1-211): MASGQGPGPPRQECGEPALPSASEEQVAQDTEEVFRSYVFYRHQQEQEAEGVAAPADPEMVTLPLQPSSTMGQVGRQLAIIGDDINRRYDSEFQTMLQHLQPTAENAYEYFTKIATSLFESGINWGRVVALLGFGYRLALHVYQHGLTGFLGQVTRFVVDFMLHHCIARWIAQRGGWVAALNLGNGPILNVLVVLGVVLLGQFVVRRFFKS
From the text: We also tested the monosubstituted peptides in competitive fluorescence polarization (FP) binding assays, which measure displacement from GST-BAK of BID BH3 stabilized alpha helix of BCL-2 proteins (SAHB) C-terminally tagged with fluorescein and thus informs on peptide binding affinity.
We carried out fluorescence polarization assays, measuring the displacement of the fluorescent peptide BID BH3 SAHB-F from GST-BAK, in 384-well Greiner black polystyrene plates with flat bottom (Sigma-Aldrich). Master mix consisted of 50 mM Tris-HCl pH 7.5, 50 mM KCl, 0.1 mg/mL BSA, 2 mM DTT, 0.005% Tween-20, 10 nM BID BH3 SAHB-F, and 1 µM GST-BAK. We pin transferred peptides using Biomek FX (Beckman Coulter Life Sciences, IN) to achieve final concentration of 500−0.2 µM in 20 µL final volume. We gently centrifuged plates to remove air bubbles for 1 min at 1000 rpm, and incubated them for 60 min at RT. […] Free peptide controls in each plate consisted of only BID BH3 SAHB-F and bound peptide controls containing BID BH3 SAHB-F + GST-BAK. We derived Z’-values using the equation [1 − 3(stdev^L + stdev^H)]/(average^H − average^L), where L is the free peptide control and H is the bound peptide control. […] We processed and visualized data using the software Robust Investigation of Screening Experiments (RISE) developed in house in the Pipeline Pilot platform (Accelrys, v.8.5.0). We performed at least three independent dose-response experiments for each peptide. We estimated IC50 values in RISE and GraphPad Prism v.8.0a.

[1] = competitive FP, mean of the experiments (replicated 4-9 times), read-out: IC50 Mean
[2] = displacement of 10 nM BID BH3 SAHB-fluorescein from 1 µM GST-BAK, peptide 500−0.2 µM, 60 min RT, mean ± SD, n = 9 experiments, read-out: IC50 FP

Row | Molecule | AUC for Experiment-1 (Mean) (Human BAK-∆TM-His6 (BAK); 1 μM peptide + 50 nM BAK) | AUC for Experiment-2 (Mean) (Human BAK-∆TM-His6 (BAK); 1 μM peptide + 50 nM BAK) | AUC for Experiment-3 (Mean) (Human BAK-∆TM-His6 (BAK); 1 μM peptide + 50 nM BAK) | AUC for Experiment-1 (Mean) (Human BAK-∆TM-His6 (BAK); 50 μM peptide + 50 nM BAK) | AUC for Experiment-2 (Mean) (Human BAK-∆TM-His6 (BAK); 50 μM peptide + 50 nM BAK) | AUC for Experiment-3 (Mean) (Human BAK-∆TM-His6 (BAK); 50 μM peptide + 50 nM BAK) | EC50 (Human BAK-∆TM-His6 (BAK)) | direct BAK activation compared to WT BID BH3 (Human BAK-∆TM-His6 (BAK)) | IC50 (GST-BAK; competitive FP, Experiment-1) | IC50 (GST-BAK; competitive FP, Experiment-2) | IC50 (GST-BAK; competitive FP, Experiment-3) | IC50 (GST-BAK; competitive FP, Experiment-4) | IC50 (GST-BAK; competitive FP, Experiment-5) | IC50 (GST-BAK; competitive FP, Experiment-6) | IC50 (GST-BAK; competitive FP, Experiment-7) | IC50 (GST-BAK; competitive FP, Experiment-8) | IC50 (GST-BAK; competitive FP, Experiment-9) | IC50 (GST-BAK; [1]) | IC50 (GST-BAK; [2])
1 | Ac-EDIIRNIARHFAQVGDSMDRSI-NH2 [F(2)] | 10.629 | 6.9165 | 10.58 | 9.2417 | 6.0451 | 8.2141 | 0.29 ± 0.0426 µM |  |  |  |  |  |  |  |  |  |  |  | 
2 | Ac-EDIIRNIARHLAQMGDSMDRSI-NH2 [M(3)] | 20.936 | 21.86 | 19.004 | 18.852 | 17.743 | 12.625 | 0.114 ± 0.0225 µM | gain in direct BAK activation compared to WT BID BH3 | 5.395 µM | 4.243 µM | 5.717 µM | 4.044 µM | 4.59 µM | 4.39 µM | 3.925 µM | 4.319 µM | 4.861 µM | 4.6 µM | 
3 | Ac-EDIIRNIARHMAQVGDSMDRSI-NH2 [M(2)] | 8.056 | 3.548 | 5.055 | 8.1746 | 3.897 | 7.008 | 0.366 ± 0.0892 µM |  |  |  |  |  |  |  |  |  |  |  | 
4 | Ac-EDIIRNIARHLAQFGDSMDRSI-NH2 [F(3)] | 18.713 | 17.421 | 16.388 | 17.267 | 18.39 | 17.889 | 0.11 ± 0.0161 µM | gain in direct BAK activation compared to WT BID BH3 |  |  |  |  |  |  |  |  |  |  | 11.3 ± 3.9 µM
5 | Ac-EDIIRNIARHWAQVGDSMDRSI-NH2 [W(2)] | 4.9093 | 3.613 | 3.7546 | 2.3973 | 4.6314 | 0.7562* | 1.08 ± 0.453 µM | less direct BAK activation compared to WT BID BH3 |  |  |  |  |  |  |  |  |  |  | 
6 | Ac-EDIWRNIARHLAQVGDSMDRSI-NH2 [W(0')] | 15.025 | 10.6297 | 8.405 | 12.2448 | 5.78* | 12.8163 | 0.242 ± 0.0663 µM |  |  |  |  |  |  |  |  |  |  |  | 27.4 ± 16.4 µM
7 | Ac-EDIIRNIARHYAQVGDSMDRSI-NH2 [Y(2)] | 4.2367 | 5.3994 | 3.7484 | 8.0372 | 6.4388 | 4.7986 | 1.21 ± 0.696 µM | less direct BAK activation compared to WT BID BH3 |  |  |  |  |  |  |  |  |  |  | 
8 | Ac-EDIIRNIARHLAQVGDSFDRSI-NH2 [F(4)] | 9.5438 | 9.663 | 8.9802 | 10.729 | 10.153 | 6.338 | 0.229 ± 0.0111 µM | less direct BAK activation compared to WT BID BH3 |  |  |  |  |  |  |  |  |  |  | 11.9 ± 3.7 µM
9 | Ac-EDIIRNIARHLAQWGDSMDRSI-NH2 [W(3)] | 14.061 | 9.0873 | 8.9347 | 8.5044 | 6.7192 | 7.8089 | 0.163 ± 0.0053 µM | less direct BAK activation compared to WT BID BH3 | 7.12 µM | 5.471 µM | 7.795 µM | 5.632 µM | 5.62 µM | 7.05 µM | 5.661 µM | 7.109 µM | 8.02 µM | 6.6 µM | 
10 | CC[C@H](C)[C@H](NC(=O)[C@H](CC(N)=O)NC(=O)[C@H](CCCNC(=N)N)NC(=O)[C@@H](NC(=O)[C@@H](NC(=O)[C@H](CC(=O)O)NC(=O)[C@H](CCC(=O)O)NC(C)=O)[C@@H](C)CC)[C@@H](C)CC)C(=O)N[C@@H](C)C(=O)N[C@@H](CCCNC(=N)N)C(=O)N[C@@H](Cc1c[nH]cn1)C(=O)N[C@@H](CC(C)C)C(=O)N[C@@H](C)C(=O)N[C@@H](CCC(N)=O)C(=O)N[C@H](C(=O)NCC(=O)N[C@@H](CC(=O)O)C(=O)N[C@@H](CO)C(=O)N[C@@H](CCSC)C(=O)N[C@@H](CC(=O)O)C(=O)N[C@@H](CCCNC(=N)N)C(=O)N[C@@H](CO)C(=O)N[C@@H](Cc1c[nH]c2ccccc12)C(N)=O)C(C)C [W(5)] | 15.613 | 13.293 | 17.537 | 10.056 | 8.1041 | 9.4463 | 0.11 ± 0.0577 µM |  | 10.88 µM | 9.859 µM | 9.959 µM | 6.417 µM | 8.231 µM | 7.397 µM | 10.36 µM | 8.244 µM | 7.774 µM | 8.8 µM | 
11 | Ac-EDIIRNIARHLAQYGDSMDRSI-NH2 [Y(3)] | 14.1 | 10.652 | 12.187 | 18.672 | 10.496 | 13.717 | 0.372 ± 0.116 µM |  |  |  |  |  |  |  |  |  |  |  | 6.2 ± 1.5 µM
12 | Ac-EDWIRNIARHLAQVGDSMDRSI-NH2 [W(0)] | 14.3256 | 13.2515 | 14.8765 | 13.3871 | 11.7489 | 12.1647 | 0.365 ± 0.0228 µM |  |  |  |  |  |  |  |  |  |  |  | 10.8 ± 5.5 µM
13 | Ac-EDIIRNWARHLAQVGDSMDRSI-NH2 [W(1)] | 5.265 | 7.491 | 5.218 | 7.873 | 8.991 | 6.529 | 1.7 ± 0.446 µM | less direct BAK activation compared to WT BID BH3 |  |  |  |  |  |  |  |  |  |  | 
